Measurements published in PubChem BioAssay (NCI).
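Where inhibition never reached the appropriate level, the endpoint shown equals the highest concentration tested. Otherwise, values were interpolated linearly from a five-concentration, 48-hour dose response in 96-well plates. The concentration for full growth arrest is given as TGI.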

What was measured:
Assay in all cases: inhibition of tumour cell growth, NCI panel, 48 h
[1] = system: NCI-H23 lung
[2] = system: MCF7 breast
[3] = system: OVCAR-4 ovarian
[4] = system: TK-10 renal
[5] = system: PC-3 prostate
[6] = system: SW-620 colon
[7] = system: DU-145 prostate
[8] = system: OVCAR-3 ovarian
[9] = system: HL-60(TB) leukemia
[10] = system: HCT-116 colon
[11] = system: CCRF-CEM leukemia
[12] = system: MDA-N
[13] = system: NCI-H522 lung
[14] = system: KM12 colon
[15] = system: A549 NSCLC
[16] = system: SK-OV-3 ovarian
[17] = system: COLO 205 colon
[18] = system: HOP-62 NSCLC
[19] = system: SK-MEL-2 melanoma
[20] = system: SK-MEL-5 melanoma
[21] = system: U251 CNS
[22] = system: UO-31 renal
[23] = system: UACC-62 melanoma
[24] = system: HCT-15 colon
[25] = system: MALME-3M melanoma
[26] = system: CAKI-1 renal
[27] = system: LOX IMVI melanoma
[28] = system: SK-MEL-28 melanoma
[29] = system: SNB-19 CNS
[30] = system: M14 melanoma
[31] = system: HOP-92 NSCLC
[32] = system: OVCAR-5 ovarian
[33] = system: SNB-75 CNS
[34] = system: MOLT-4 leukemia
[35] = system: UACC-257 melanoma
[36] = system: RXF 393 renal
[37] = system: NCI-H226 lung
[38] = system: RPMI-8226 leukemia
[39] = system: SN12C renal
[40] = system: SR leukemia
[41] = system: ACHN renal
[42] = system: 786-0 renal
[43] = system: MDA-MB-231 breast
[44] = system: IGROV1 ovarian
[45] = system: NCI/ADR-RES ovarian
[46] = system: MDA-MB-435
[47] = system: OVCAR-8 ovarian
[48] = system: EKVX NSCLC
[49] = system: SF-268 CNS
[50] = system: SF-295 CNS
[51] = system: BT-549 breast
[52] = system: K-562 leukemia
[53] = system: A498 renal
[54] = system: HT29 colon
[55] = system: T-47D breast
[56] = system: HS 578T breast
[57] = system: NCI-H460 lung
[58] = system: HCC-2998 colon

CN(C)C1C(=O)C(C(=O)NCN2CCCC2)=C(O)C2(O)C(=O)C3=C(O)c4c(O)cccc4C(C)(O)C3CC12 (stereo unspecified)
TGI [1]: > 100 µM | TGI [2]: > 100 µM | TGI [3]: > 100 µM | TGI [4]: > 100 µM | TGI [5]: > 100 µM | TGI [6]: > 100 µM | TGI [7]: > 100 µM | TGI [8]: > 100 µM | TGI [9]: > 100 µM | TGI [10]: > 100 µM | TGI [11]: > 100 µM | TGI [12]: > 100 µM | TGI [13]: > 100 µM | TGI [14]: > 100 µM | TGI [15]: > 100 µM | TGI [16]: > 100 µM | TGI [17]: > 100 µM | TGI [18]: > 100 µM | TGI [19]: > 100 µM | TGI [20]: > 100 µM | TGI [21]: > 100 µM | TGI [22]: > 100 µM | TGI [23]: > 100 µM | TGI [24]: > 100 µM | TGI [25]: 48.7 µM | TGI [26]: > 100 µM | TGI [27]: > 100 µM | TGI [28]: > 100 µM | TGI [29]: > 100 µM | TGI [30]: > 100 µM | TGI [31]: > 100 µM | TGI [32]: > 100 µM | TGI [33]: > 100 µM | TGI [34]: > 100 µM | TGI [35]: > 100 µM | TGI [36]: > 100 µM | TGI [37]: > 100 µM | TGI [38]: > 100 µM | TGI [39]: > 100 µM | TGI [40]: > 100 µM | TGI [41]: > 100 µM | TGI [42]: > 100 µM | TGI [43]: > 100 µM | TGI [44]: > 100 µM | TGI [45]: > 100 µM | TGI [46]: > 100 µM | TGI [47]: > 100 µM | TGI [48]: > 100 µM | TGI [49]: > 100 µM | TGI [50]: > 100 µM | TGI [51]: > 100 µM | TGI [52]: > 100 µM | TGI [53]: > 100 µM | TGI [54]: > 100 µM | TGI [55]: > 100 µM | TGI [56]: > 100 µM

CCOC(=O)C1C(O)CC2c3ccccc3-c3ccccc3C21 (stereo unspecified)
TGI [1]: > 100 µM | TGI [2]: > 100 µM | TGI [3]: > 100 µM | TGI [4]: > 100 µM | TGI [5]: > 100 µM | TGI [6]: > 100 µM | TGI [7]: > 100 µM | TGI [8]: > 100 µM | TGI [9]: > 100 µM | TGI [10]: 41.4 µM | TGI [11]: > 100 µM | TGI [12]: > 100 µM | TGI [13]: > 100 µM | TGI [14]: > 100 µM | TGI [15]: > 100 µM | TGI [16]: 45.5 µM | TGI [17]: > 100 µM | TGI [18]: 91.2 µM | TGI [19]: > 100 µM | TGI [20]: > 100 µM | TGI [21]: 75.5 µM | TGI [22]: > 100 µM | TGI [23]: > 100 µM | TGI [24]: > 100 µM | TGI [25]: > 100 µM | TGI [26]: > 100 µM | TGI [27]: > 100 µM | TGI [28]: > 100 µM | TGI [29]: > 100 µM | TGI [30]: > 100 µM | TGI [31]: 75 µM | TGI [32]: > 100 µM | TGI [33]: 67.1 µM | TGI [34]: > 100 µM | TGI [35]: > 100 µM | TGI [36]: > 100 µM | TGI [37]: 60.1 µM | TGI [38]: > 100 µM | TGI [39]: > 100 µM | TGI [40]: > 100 µM | TGI [41]: > 100 µM | TGI [42]: 89 µM | TGI [43]: > 100 µM | TGI [44]: > 100 µM | TGI [45]: > 100 µM | TGI [46]: > 100 µM | TGI [47]: 48.1 µM | TGI [48]: > 100 µM | TGI [49]: > 100 µM | TGI [50]: > 100 µM | TGI [51]: > 100 µM | TGI [52]: > 100 µM | TGI [53]: 68.9 µM | TGI [54]: > 100 µM | TGI [55]: > 100 µM | TGI [57]: > 100 µM | TGI [56]: 60.6 µM

CC#CC#C/C=C1/O[C@]2(CCC(OC(=O)CC(C)C)CO2)[C@@H]2O[C@H]12 (stereo partly specified)
TGI [1]: 60 µM | TGI [2]: > 100 µM | TGI [3]: > 100 µM | TGI [4]: 61.3 µM | TGI [5]: 72.5 µM | TGI [6]: 43.7 µM | TGI [7]: > 100 µM | TGI [8]: 52.3 µM | TGI [9]: 42.9 µM | TGI [10]: 33.3 µM | TGI [11]: 27.5 µM | TGI [12]: 54.3 µM | TGI [13]: 37.4 µM | TGI [14]: > 100 µM | TGI [15]: > 100 µM | TGI [16]: > 100 µM | TGI [18]: > 100 µM | TGI [19]: 52.5 µM | TGI [21]: 54.6 µM | TGI [22]: 36.5 µM | TGI [23]: 66.6 µM | TGI [24]: 53.1 µM | TGI [25]: 47.7 µM | TGI [26]: 34.7 µM | TGI [27]: 35.9 µM | TGI [29]: > 100 µM | TGI [30]: 47.7 µM | TGI [31]: 66 µM | TGI [32]: 72.9 µM | TGI [33]: > 100 µM | TGI [34]: 54.6 µM | TGI [35]: > 100 µM | TGI [36]: 42.2 µM | TGI [38]: 50.3 µM | TGI [39]: 41.2 µM | TGI [58]: 37.5 µM | TGI [40]: > 100 µM | TGI [41]: 44.7 µM | TGI [42]: 49.3 µM | TGI [43]: 62.7 µM | TGI [44]: > 100 µM | TGI [45]: 64.4 µM | TGI [46]: 60.4 µM | TGI [47]: > 100 µM | TGI [48]: 84.3 µM | TGI [49]: 54.1 µM | TGI [51]: 56.3 µM | TGI [52]: > 100 µM | TGI [53]: > 100 µM | TGI [54]: 35.4 µM | TGI [55]: 48.3 µM | TGI [57]: > 100 µM | TGI [56]: > 100 µM
